Measurements from patent US6737383B1, “Herbicidal oxadiazolidines” (priority 1999, dated 2004).

Experiments:
wheat = experiment: Test B pre/postemergence wheat; format: in vivo, Triticum aestivum
Method in brief: (§1)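 Response is a visual 0-to-10 score relative to untreated plants, where 0 means no effect and 10 means complete control, taken twelve to sixteen days after application. Treatments went onto soil at planting and onto foliage of 1- to 4-leaf plants, using a surfactant-containing non-phytotoxic solvent.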

cocklebur = experiment: Test B pre/postemergence cocklebur; format: in vivo, Xanthium strumarium
Method in brief: as §1

duck salad = experiment: Test B flood test duck salad; format: in vivo, Heteranthera limosa
Method in brief: (§2)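 Plants were grown to the 2-leaf stage before treatment with test chemical, then held in a greenhouse for twelve to sixteen days. Injury was visually rated against untreated controls on a 0–10 scale, where 0 is no effect and 10 is complete control.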

velvetleaf = experiment: Test B pre/postemergence velvetleaf; format: in vivo, Abutilon theophrasti
Method in brief: as §1

smallflower flatsedge = experiment: Test B flood test smallflower flatsedge; format: in vivo, Cyperus difformis
Method in brief: as §2

morningglory = experiment: Test B pre/postemergence morningglory; format: in vivo, Ipomoea hederacea
Method in brief: as §1

pigweed = experiment: Test B pre/postemergence pigweed; format: in vivo, Amaranthus retroflexus
Method in brief: as §1

purple nutsedge = experiment: Test B pre/postemergence purple nutsedge; format: in vivo, Cyperus rotundus
Method in brief: as §1

corn = experiment: Test B pre/postemergence corn; format: in vivo, Zea mays
Method in brief: as §1

surinam grass = experiment: Test B pre/postemergence surinam grass; format: in vivo, Brachiaria decumbens
Method in brief: as §1

bamyardgrass = experiment: Test B flood test barnyardgrass; format: in vivo, Echinochloa crus-galli
Method in brief: as §2

rape = experiment: Test B pre/postemergence rape; format: in vivo, Brassica napus
Method in brief: as §1

wild oat = experiment: Test B pre/postemergence wild oat; format: in vivo, Avena fatua
Method in brief: as §1

blackgrass = experiment: Test B pre/postemergence blackgrass; format: in vivo, Alopecurus myosuroides
Method in brief: as §1

rice = experiment: Test B flood test rice; format: in vivo, Oryza sativa
Method in brief: as §2

[1] = Postemergence, Rate 62 g/ha, scale 0 to 10, 0 is no effect, 10 is complete control
[2] = Postemergence, Rate 125 g/ha, scale of 0 to 10 where 0 is no effect and 10 is complete control
[3] = Postemergence, Rate 250 g/ha, scale of 0 to 10, 0 is no effect, 10 is complete control
[4] = Preemergence, Rate 62 g/ha, scale of 0 to 10 where 0 is no effect and 10 is complete control
[5] = Preemergence, Rate 125 g/ha, scale of 0 to 10 where 0 is no effect and 10 is complete control
[6] = Preemergence, Rate 250 g/ha, scale 0 to 10 (0 no effect, 10 complete control)
[7] = Preemergence, Rate 500 g/ha, scale of 0 to 10 where 0 is no effect and 10 is complete control
[8] = Postemergence, Rate 500 g/ha, scale of 0 to 10 where 0 is no effect and 10 is complete control
[9] = Rate 62 g/ha, flood test species, Pre-emergence, visual evaluation after twelve to sixteen days
[10] = Rate 125 g/ha, under heading Pre-emergence, flood test species, visual evaluation after twelve to sixteen days
[11] = Rate 250 g/ha, Pre-emergence (flood test species), scale 0 to 10, 0 is no effect, 10 is complete control
[12] = Rate 500 g/ha, Pre-emergence section of Table B, 0 to 10 scale (0 no effect, 10 complete control)

CC(C)N(C(=O)n1oc(=O)n(CCC(=O)N(C)C)c1=O)c1ccc(F)cc1 [Compound 638]
Plant response rating, Wheat (wheat; [1]): 0 | Plant response rating, Wheat (wheat; [2]): 0 | Wheat plant response rating (wheat; [3]): 3 | Wheat plant response rating (wheat; [4]): 0 | Wheat plant response rating (wheat; [5]): 0 | Plant response rating, Wheat (wheat; [6]): 3 | Plant response rating, Wheat (wheat; [7]): 7 | Plant response rating, Cocklebur (cocklebur; [1]): 0 | Plant response rating, Cocklebur (cocklebur; [2]): 0 | Cocklebur plant response rating (cocklebur; [3]): 2 | Plant response rating, Cocklebur (cocklebur; [8]): 4 | Cocklebur plant response rating (cocklebur; [4]): 0 | Cocklebur plant response rating (cocklebur; [5]): 0 | Plant response rating, Cocklebur (cocklebur; [6]): 4 | Plant response rating, Cocklebur (cocklebur; [7]): 9 | Plant response rating, Ducksalad (0 to 10 scale, 0 is no effect, 10 is complete control) (duck salad; [9]): 0 | Ducksalad plant response rating (0 to 10 scale, 0 is no effect, 10 is complete control) (duck salad; [10]): 0 | Ducksalad plant response rating (duck salad; [11]): 0 | Ducksalad plant response rating (duck salad; [12]): 0 | Plant response rating, Velvetleaf (velvetleaf; [1]): 0 | Plant response rating, Velvetleaf (velvetleaf; [2]): 2 | Velvetleaf plant response rating (velvetleaf; [3]): 4 | Velvetleaf plant response rating (velvetleaf; [4]): 3 | Velvetleaf plant response rating (velvetleaf; [5]): 5 | Plant response rating, Velvetleaf (velvetleaf; [6]): 5 | Plant response rating, Velvetleaf (velvetleaf; [7]): 10 | Plant response rating, S. Flatsedge (0 to 10 scale, 0 is no effect, 10 is complete control) (smallflower flatsedge; [9]): 0 | S. Flatsedge plant response rating (0 to 10 scale, 0 is no effect, 10 is complete control) (smallflower flatsedge; [10]): 0 | S. Flatsedge plant response rating (smallflower flatsedge; [11]): 0 | S. Flatsedge plant response rating (smallflower flatsedge; [12]): 0 | Plant response rating, Morningglory (morningglory; [1]): 0 | Plant response rating, Morningglory (morningglory; [2]): 2 | Morningglory plant response rating (morningglory; [3]): 3 | Plant response rating, Morningglory (morningglory; [8]): 7 | Morningglory plant response rating (morningglory; [4]): 0 | Morningglory plant response rating (morningglory; [5]): 0 | Plant response rating, Morningglory (morningglory; [6]): 2 | Plant response rating, Morningglory (morningglory; [7]): 7 | Plant response rating, Redroot pigweed (pigweed; [1]): 0 | Plant response rating, Redroot pigweed (pigweed; [2]): 0 | Redroot pigweed plant response rating (pigweed; [3]): 0 | Redroot pigweed plant response rating (pigweed; [4]): 7 | Redroot pigweed plant response rating (pigweed; [5]): 10 | Plant response rating, Redroot pigweed (pigweed; [6]): 10 | Plant response rating, Redroot pigweed (pigweed; [7]): 10 | Plant response rating, Nutsedge (purple nutsedge; [1]): 0 | Plant response rating, Nutsedge (purple nutsedge; [2]): 5 | Plant response rating, Nutsedge (purple nutsedge; [8]): 7 | Nutsedge plant response rating (purple nutsedge; [4]): 0 | Nutsedge plant response rating (purple nutsedge; [5]): 5 | Plant response rating, Nutsedge (purple nutsedge; [6]): 5 | Plant response rating, Nutsedge (purple nutsedge; [7]): 8 | Plant response rating, Corn (corn; [1]): 0 | Plant response rating, Corn (corn; [2]): 2 | Corn plant response rating (corn; [3]): 2 | Plant response rating, Corn (corn; [8]): 3 | Corn plant response rating (corn; [4]): 0 | Corn plant response rating (corn; [5]): 8 | Plant response rating, Corn (corn; [7]): 8 | Plant response rating, B. signalgrass (surinam grass; [1]): 0 | Plant response rating, B. signalgrass (surinam grass; [2]): 4 | B. signalgrass plant response rating (surinam grass; [3]): 6 | Plant response rating, B. signalgrass (surinam grass; [8]): 6 | B. signalgrass plant response rating (surinam grass; [4]): 4 | B. signalgrass plant response rating (surinam grass; [5]): 7 | Plant response rating, B. signalgrass (surinam grass; [6]): 8 | Plant response rating, B. signalgrass (surinam grass; [7]): 8 | Plant response rating, Barnyardgrass (0 to 10 scale, 0 is no effect, 10 is complete control) (bamyardgrass; [9]): 0 | Barnyardgrass plant response rating (0 to 10 scale, 0 is no effect, 10 is complete control) (bamyardgrass; [10]): 0 | Barnyardgrass plant response rating (bamyardgrass; [11]): 0 | Barnyardgrass plant response rating (bamyardgrass; [12]): 0 | Plant response rating, Rape (rape; [1]): 0 | Plant response rating, Rape (rape; [2]): 0 | Rape plant response rating (rape; [3]): 0 | Plant response rating, Rape (rape; [8]): 0 | Rape plant response rating (rape; [4]): 0 | Rape plant response rating (rape; [5]): 5 | Plant response rating, Rape (rape; [6]): 8 | Plant response rating, Rape (rape; [7]): 10 | Plant response rating, Wild oats (wild oat; [1]): 1 | Plant response rating, Wild oats (wild oat; [2]): 1 | Wild oats plant response rating (wild oat; [3]): 1 | Wild oats plant response rating (wild oat; [4]): 4 | Wild oats plant response rating (wild oat; [5]): 4 | Plant response rating, Wild oats (wild oat; [6]): 10 | Plant response rating, Wild oats (wild oat; [7]): 10 | Plant response rating, Blackgrass (blackgrass; [1]): 0 | Plant response rating, Blackgrass (blackgrass; [2]): 4 | Blackgrass plant response rating (blackgrass; [3]): 6 | Plant response rating, Blackgrass (blackgrass; [8]): 7 | Blackgrass plant response rating (blackgrass; [4]): 4 | Blackgrass plant response rating (blackgrass; [5]): 5 | Plant response rating, Blackgrass (blackgrass; [6]): 9 | Plant response rating, Blackgrass (blackgrass; [7]): 9 | Plant response rating, Rice (0 to 10 scale, 0 is no effect, 10 is complete control) (rice; [9]): 0 | Rice plant response rating (0 to 10 scale, 0 is no effect, 10 is complete control) (rice; [10]): 0 | Rice plant response rating (rice; [11]): 0 | Rice plant response rating (rice; [12]): 0
